Tests used:
BACE [1] = target: T1, BACE (Homo sapiens, UniProt P56817); assay: In vitro enzymatic BACE FRET assay (Enzyme Assay); format: biochemical; conditions: pH 4.2, enzyme 0.2 nM, FRET substrate 50 nM
T1 construct: Cells stably expressing Amyloid Precursor Protein (APP) were plated at a density of 40K cells/well in 96 well plates; endogenous in cells
Method: In Vitro Enzymatic BACE FRET (Fluorescence Resonance Energy Transfer) Assay (Enzyme Assay)
Assay buffer is 0.05 M acetate, pH 4.2, 10% DMSO final, 100 uM genapol (which is a nonionic detergent, below it's Critical Micelle Concentration). Enzyme (0.2 nM) is pre-incubated for one hour with inhibitors added in 1 uL of DMSO. Then the assay is started by the addition of FRET substrate (50 nM) and incubated for one hour. The FRET assay is terminated with by addition of Tris buffer, which raises the pH to neutrality, and the fluorescence is determined The FRET substrate is a peptide with commercially available fluorophore and quencher, on opposite sides of the BACE cleavage site. Proteolytic cleavage of the FRET substrate releases quenching of fluorescence (excitation 488 nm and […]).

BACE [2] = target: T1, BACE; assay: BACE cell-based assay (Cell Assay), inhibition of Aβ40 by sandwich ELISA; conditions: Aβ40 in conditioned medium of cells stably expressing APP, 24 h incubation
Method: BACE Cell-Based Assay (Cell Assay)
The cell-based assay measures inhibition or reduction of Aβ40 in conditioned medium of test compound treated cells expressing amyloid precursor protein.
Cells stably expressing Amyloid Precursor Protein (APP) were plated at a density of 40K cells/well in 96 well plates (Costar). The cells were cultivated for 24 hours at 37° C. and 5% CO2 in DMEM supplemented with 10% FBS. The test compounds were then added to cells in 10-point dose response concentrations with the starting concentration being either 100 μM or 10 μM. The compounds were diluted from stock solutions in DMSO and the final DMSO concentration of the test compounds on cells was 0.1%. After 24 h of incubation with the test compounds the supernatant conditioned media was collected and the Aβ40 levels were determined using a sandwich ELISA. The IC50 of the compound was calculated from the percent of control or percent inhibition of Aβ40 as a function of the concentration of the test compound.
The sandwich ELISA to detect Aβ40 was performed in 96 well microtiter plates, which were pre-treated with goat anti-rabbit IgG (Pierce). The capture and detecting antibody pair that were used to detect Aβ40 from cell supernatants were affinity purified pAb40 (Biosource) and biotinylated 6E10 (Signet Labs Inc.), respectively. The optimal concentration for the pAb40 antibody was 3 μg/ml in Superblock/TBS (Pierce) that was supplemented with 0.05% Tween 20 (Sigma). Optimal concentration for the detection antibody 6E10-biotinylated was 0.5 μg/ml in Superblock/TBS (Pierce) that had been supplemented with 2% normal goat serum and 2% normal mouse serum.
Cellular supernatants were incubated with the capture antibody for 3 h at 4° C., followed by 3 wash steps in TBS-tween (0.05%). The detecting antibody incubation was for 2 h at 4° C., again followed by the wash steps as described previously. The final readout of the ELISA is Time-Resolved Fluorescence (counts per minute) using Delfia reagents Streptavidin-Europium and Enhancement solutions (Perkin Elmer) and the Victor 2 multilabel counter (Perkin Elmer).

T1 sequence (P56817 46-501): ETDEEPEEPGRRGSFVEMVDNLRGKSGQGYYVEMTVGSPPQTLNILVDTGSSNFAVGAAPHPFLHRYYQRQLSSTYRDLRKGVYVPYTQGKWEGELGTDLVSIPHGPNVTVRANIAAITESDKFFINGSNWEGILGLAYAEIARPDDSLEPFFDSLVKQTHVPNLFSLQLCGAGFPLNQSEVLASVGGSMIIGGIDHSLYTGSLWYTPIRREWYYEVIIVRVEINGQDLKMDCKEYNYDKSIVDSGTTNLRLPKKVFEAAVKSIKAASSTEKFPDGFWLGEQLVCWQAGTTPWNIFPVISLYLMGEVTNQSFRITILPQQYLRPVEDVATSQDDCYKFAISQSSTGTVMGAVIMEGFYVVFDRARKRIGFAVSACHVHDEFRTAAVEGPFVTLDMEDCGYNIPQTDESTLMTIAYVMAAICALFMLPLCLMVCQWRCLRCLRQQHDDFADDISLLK

IC50 (BACE [1])	IC50 (BACE [2])	Structure (SMILES)
10 to 25 µM	10 to 25 µM	CCc1ccc2c(c1)[C@@H](NC[C@@H](O)[C@H](Cc1ccccc1)Nc1ccc(Cl)nn1)CC1(CCC1)O2 [Example 39, (2R,3S)-3-((6-chloro-3-pyridazinyl)amino)-1-(((4S)-6-ethyl-3,4-dihydrospiro[chromene-2,1′-cyclobutan]-4-yl)amino)-4-phenyl-2-butanol]
–	10 to 25 µM	CCc1ccc2c(c1)[C@@H](NC[C@@H](O)[C@H](Cc1ccccc1)Nc1cnccn1)CC1(CCCC1)O2 [Example 40, (2R,3S)-1-(((4S)-6-ethyl-3,4-dihydrospiro[chromene-2,1′-cyclopentan]-4-yl)amino)-4-phenyl-3-(2-pyrazinylamino)-2-butanol]
5 to 10 µM	10 to 25 µM	CCc1ccc2c(c1)[C@@H](NC[C@@H](O)[C@H](Cc1ccccc1)Nc1ccccc1F)CC1(CCCC1)O2 [Example 32, (2R,3S)-1-(((4S)-6-ethyl-3,4-dihydrospiro[chromene-2,1′-cyclopentan]-4-yl)amino)-3-((2-fluorophenyl)amino)-4-phenyl-2-butanol]
10 to 25 µM	–	CCc1ccc2c(c1)[C@@H](NC[C@@H](O)[C@H](Cc1ccccc1)Nc1nc3ccccc3s1)CC1(CCC1)O2 [Example 42, (2R,3S)-3-(1,3-benzothiazol-2-ylamino)-1-(((4S)-6-ethyl-3,4-dihydrospiro[chromene-2,1′-cyclobutan]-4-yl)amino)-4-phenyl-2-butanol]
0.1 to 1 µM	1 to 5 µM	CC(C)(C)Cc1cnc2c(c1)[C@@H](NC[C@@H](O)[C@H](Cc1cc(F)cc(F)c1)Nc1ncccn1)CC1(CCC1)O2 [Example 25, (2R,3S)-4-(3,5-difluorophenyl)-1-(((4′S)-6′-(2,2-dimethylpropyl)-3′,4′-dihydrospiro[cyclobutane-1,2′-pyrano[2,3-b]pyridin]-4′-yl)amino)-3-(2-pyrimidinylamino)-2-butanol]
10 to 25 µM	5 to 10 µM	O[C@H](CN[C@H]1CC2(CCC2)Oc2ccc(Br)cc21)[C@H](Cc1ccccc1)Nc1nccn2cnnc12 [Example 22, (2R,3S)-1-(((4S)-6-bromo-3,4-dihydrospiro[chromene-2,1′-cyclobutan]-4-yl)amino)-4-phenyl-3-([1,2,4]triazolo[4,3-a]pyrazin-8-ylamino)-2-butanol]
< 0.1 µM	0.1 to 1 µM	CC(C)(C)Cc1cnc2c(c1)[C@@H](NC[C@@H](O)[C@H](Cc1cc(F)cc(F)c1)Nc1ccnc(Cl)n1)CC1(CCC1)O2 [Example 24, (2R,3S)-3-((2-chloro-4-pyrimidinyl)amino)-4-(3,5-difluorophenyl)-1-(((4′S)-6′-(2,2-dimethylpropyl)-3′,4′-dihydrospiro[cyclobutane-1,2′-pyrano[2,3-b]pyridin]-4′-yl)amino)-2-butanol]
10 to 25 µM	10 to 25 µM	CC(C)(C)Cc1cnc2c(c1)[C@@H](NC[C@H](O)[C@H](Cc1ccccc1)Nc1ccccc1F)CC1(CCC1)O2 [Example 41, (2S,3S)-1-(((4′S)-6′-(2,2-dimethylpropyl)-3′,4′-dihydrospiro[cyclobutane-1,2′-pyrano[2,3-b]pyridin]-4′-yl)amino)-3-((2-fluorophenyl)amino)-4-phenyl-2-butanol]
1 to 5 µM	10 to 25 µM	CC(C)(C)Cc1cnc2c(c1)[C@@H](NC[C@@H](O)[C@H](Cc1cc(F)cc(F)c1)Nc1ccccc1F)CC1(CCC1)O2 [Example 26, (2R,3S)-4-(3,5-difluorophenyl)-1-(((4′S)-6′-(2,2-dimethylpropyl)-3′,4′-dihydrospiro[cyclobutane-1,2′-pyrano[2,3-b]pyridin]-4′-yl)amino)-3-((2-fluorophenyl)amino)-2-butanol]
0.1 to 1 µM	< 0.1 µM	CC(C)(C)Cc1cnc2c(c1)[C@@H](NC[C@@H](O)[C@H](Cc1cc(F)cc(F)c1)Nc1nccn3cnnc13)CC1(CCC1)O2 [Example 21, (2R,3S)-4-(3,5-difluorophenyl)-1-(((4′S)-6′-(2,2-dimethylpropyl)-3′,4′-dihydrospiro[cyclobutane-1,2′-pyrano[2,3-b]pyridin]-4′-yl)amino)-3-([1,2,4]triazolo[4,3-a]pyrazin-8-ylamino)-2-butanol]
10 to 25 µM	0.1 to 1 µM	CC(C)(C)Cc1cnc2c(c1)[C@@H](NC[C@@H](O)[C@H](Cc1ccc(F)cc1)Nc1ncnc3sccc13)CC1(CCC1)O2 [Example 35, (2R,3S)-1-(((4′S)-6′-(2,2-dimethylpropyl)-3′,4′-dihydrospiro[cyclobutane-1,2′-pyrano[2,3-b]pyridin]-4′-yl)amino)-4-(4-fluorophenyl)-3-(thieno[2,3-d]pyrimidin-4-ylamino)-2-butanol]
10 to 25 µM	5 to 10 µM	CCc1ccc2c(c1)[C@@H](NC[C@@H](O)[C@H](Cc1ccccc1)Nc1nccc(CC)n1)CC1(CCC1)O2 [Example 37, (2R,3S)-1-((S)-6-ethyl-2,2-spirocyclobutyl-chroman-4-ylamino)-4-phenyl-3-(4-ethylpyrimidin-2-ylamino)butan-2-ol]
< 0.1 µM	0.1 to 1 µM	CCOc1c(N[C@@H](Cc2cccc(F)c2)[C@H](O)CN[C@H]2CC3(CCC3)Oc3ncc(CC(C)(C)C)cc32)c(=O)c1=O [Example 45, 3-(((1S,2R)-3-(((4′S)-6′-(2,2-dimethylpropyl)-3′,4′-dihydrospiro[cyclobutane-1,2′-pyrano[2,3-b]pyridin]-4′-yl)amino)-1-((3-fluorophenyl)methyl)-2-hydroxypropyl)amino)-4-(ethyloxy)-3-cyclobutene-1,2-dione]
–	1 to 5 µM	CCc1ccc2c(c1)[C@@H](NC[C@@H](O)[C@H](Cc1ccccc1)Nc1ccncc1)CC1(CCC1)O2 [Example 44, (2R,3S)-1-(((4S)-6-ethyl-3,4-dihydrospiro[chromene-2,1′-cyclobutan]-4-yl)amino)-4-phenyl-3-(4-pyridinylamino)-2-butanol]
5 to 10 µM	10 to 25 µM	CC(C)(C)Cc1cnc2c(c1)[C@@H](NC[C@@H](O)[C@H](Cc1ccc(F)cc1)Nc1ncnc3ccsc13)CC1(CCC1)O2 [Example 30, (2R,3S)-1-(((4′S)-6′-(2,2-dimethylpropyl)-3′,4′-dihydrospiro[cyclobutane-1,2′-pyrano[2,3-b]pyridin]-4′-yl)amino)-4-(4-fluorophenyl)-3-(thieno[3,2-d]pyrimidin-4-ylamino)-2-butanol]
5 to 10 µM	10 to 25 µM	CCc1ccc2c(c1)[C@@H](NC[C@@H](O)[C@H](Cc1ccccc1)Nc1ccccc1F)CC1(CCC1)O2 [Example 31, (2R,3S)-1-(((4S)-6-ethyl-3,4-dihydrospiro[chromene-2,1′-cyclobutan]-4-yl)amino)-3-((2-fluorophenyl)amino)-4-phenyl-2-butanol]
1 to 5 µM	10 to 25 µM	CC(C)(C)Cc1cnc2c(c1)[C@@H](NC[C@@H](O)[C@H](Cc1ccc(F)cc1)Nc1ccnc(Cl)n1)CC1(CCC1)O2 [Example 29, (2R,3S)-3-((2-chloro-4-pyrimidinyl)amino)-1-(((4′S)-6′-(2,2-dimethylpropyl)-3′,4′-dihydrospiro[cyclobutane-1,2′-pyrano[2,3-b]pyridin]-4′-yl)amino)-4-(4-fluorophenyl)-2-butanol]
10 to 25 µM	10 to 25 µM	CCc1ccc2c(c1)[C@@H](NC[C@@H](O)[C@H](Cc1ccccc1)Nc1nccc(C(F)(F)F)n1)CC1(CCC1)O2 [Example 33, (2R,3S)-1-((S)-6-ethyl-2,2-spirocyclobutyl-chroman-4-ylamino)-4-phenyl-3-(4-(trifluoromethyl)pyrimidin-2-ylamino)butan-2-ol]
